According to PubChem BioAssay (NCI):
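Grown in 96-well plates, cells were treated for 48 hours with each compound at five concentrations. Insufficient inhibition: endpoint recorded as highest concentration tested. Abbreviation: GI50, concentration required for 50% inhibition of growth. TGI is the concentration that stops growth completely.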

How the values were obtained:
Test in all cases: NCI tumour cell line growth inhibition, 48 h
[1] = tested on: KM12 colon
[2] = tested on: SW-620 colon
[3] = tested on: HCC-2998 colon
[4] = tested on: UO-31 renal
[5] = tested on: RXF 393 renal
[6] = tested on: OVCAR-3 ovarian
[7] = tested on: SF-295 CNS
[8] = tested on: SK-MEL-2 melanoma
[9] = tested on: EKVX NSCLC
[10] = tested on: A498 renal
[11] = tested on: NCI-H23 lung
[12] = tested on: T-47D breast
[13] = tested on: NCI-H522 lung
[14] = tested on: U251 CNS
[15] = tested on: K-562 leukemia
[16] = tested on: COLO 205 colon
[17] = tested on: MDA-MB-231 breast
[18] = tested on: TK-10 renal
[19] = tested on: CAKI-1 renal
[20] = tested on: LOX IMVI melanoma
[21] = tested on: MOLT-4 leukemia
[22] = tested on: IGROV1 ovarian
[23] = tested on: HOP-92 NSCLC
[24] = tested on: UACC-257 melanoma
[25] = tested on: OVCAR-4 ovarian
[26] = tested on: HOP-62 NSCLC
[27] = tested on: HS 578T breast
[28] = tested on: HCT-116 colon
[29] = tested on: SNB-19 CNS
[30] = tested on: SK-MEL-28 melanoma
[31] = tested on: DU-145 prostate
[32] = tested on: RPMI-8226 leukemia
[33] = tested on: SN12C renal
[34] = tested on: HL-60(TB) leukemia
[35] = tested on: SR leukemia
[36] = tested on: NCI/ADR-RES ovarian
[37] = tested on: 786-0 renal
[38] = tested on: NCI-H226 lung
[39] = tested on: SNB-75 CNS
[40] = tested on: MCF7 breast
[41] = tested on: HT29 colon
[42] = tested on: OVCAR-8 ovarian
[43] = tested on: SF-539 CNS
[44] = tested on: MDA-MB-435
[45] = tested on: PC-3 prostate
[46] = tested on: A549 NSCLC
[47] = tested on: SF-268 CNS
[48] = tested on: M14 melanoma
[49] = tested on: SK-OV-3 ovarian
[50] = tested on: UACC-62 melanoma
[51] = tested on: ACHN renal
[52] = tested on: HCT-15 colon
[53] = tested on: OVCAR-5 ovarian
[54] = tested on: NCI-H460 lung
[55] = tested on: CCRF-CEM leukemia
[56] = tested on: MALME-3M melanoma
[57] = tested on: SK-MEL-5 melanoma
[58] = tested on: BT-549 breast

## CCCCCCCCCCCCCCCCNc1ccn(C2CC(OP(=O)(O)OCC3OC(n4cc(CC)c(=O)[nH]c4=O)CC3O)C(CO)O2)c(=O)n1 (configuration not stated)
[1]
  TGI: 29600 nM
[2]
  TGI: 65400 nM
[3]
  TGI: 88000 nM
[4]
  TGI: 53000 nM
[5]
  TGI: 46400 nM
[6]
  TGI: > 100000 nM
[7]
  TGI: 34500 nM
[8]
  TGI: 39100 nM
[9]
  TGI: > 100000 nM
[10]
  TGI: > 100000 nM
[11]
  TGI: > 100000 nM
[12]
  TGI: > 100000 nM
[13]
  TGI: > 100000 nM
[14]
  TGI: 89300 nM
[15]
  TGI: 44900 nM
[16]
  TGI: 92400 nM
[17]
  TGI: 68300 nM
[18]
  TGI: > 100000 nM
[19]
  TGI: > 100000 nM
[20]
  TGI: > 100000 nM
[21]
  TGI: 41300 nM
[22]
  TGI: > 100000 nM
[23]
  TGI: > 100000 nM
[24]
  TGI: 97400 nM
[25]
  TGI: > 100000 nM
[26]
  TGI: 53900 nM
[27]
  TGI: 67100 nM
[28]
  TGI: > 100000 nM
[29]
  TGI: 31700 nM
[30]
  TGI: 68300 nM
[31]
  TGI: > 100000 nM
[32]
  TGI: 38800 nM
[33]
  TGI: > 100000 nM
[34]
  TGI: 20200 nM
[35]
  TGI: 47200 nM
[36]
  TGI: 84900 nM
[37]
  TGI: > 100000 nM
[38]
  TGI: > 100000 nM
[39]
  TGI: 81100 nM
[40]
  TGI: > 100000 nM
[41]
  TGI: 46100 nM
[42]
  TGI: 43600 nM
[43]
  TGI: 34400 nM
[44]
  TGI: > 100000 nM
[45]
  TGI: 37100 nM
[46]
  TGI: 55200 nM
[47]
  TGI: 33500 nM
[48]
  TGI: 33200 nM
[49]
  TGI: 82100 nM
[50]
  TGI: 35800 nM
[51]
  TGI: > 100000 nM
[52]
  TGI: 72500 nM
[53]
  TGI: 62800 nM

## Cc1ccc2cnc(N)c(C#Cc3cncc(C(=O)Nc4ccc(CN5CCN(C)CC5)c(C(F)(F)F)c4)c3)c2c1
[1]
  GI50: 5 nM
  TGI: 538 nM
[54]
  GI50: 212 nM
  TGI: 819 nM
[2]
  GI50: 131 nM
  TGI: 540 nM
[3]
  GI50: 582 nM
  TGI: 1300 nM
[4]
  GI50: 589 nM
  TGI: 1220 nM
[5]
  GI50: 632 nM
  TGI: 1290 nM
[6]
  GI50: 633 nM
  TGI: 1290 nM
[55]
  GI50: 197 nM
  TGI: 897 nM
[7]
  GI50: 828 nM
  TGI: 1570 nM
[8]
  GI50: 660 nM
  TGI: 1630 nM
[9]
  GI50: 317 nM
  TGI: 1010 nM
[10]
  GI50: 291 nM
  TGI: 1010 nM
[11]
  GI50: 492 nM
  TGI: 1250 nM
[13]
  GI50: 249 nM
  TGI: 1020 nM
[14]
  GI50: 590 nM
  TGI: 1210 nM
[15]
  GI50: 5 nM
  TGI: 619 nM
[16]
  GI50: 134 nM
  TGI: 723 nM
[17]
  GI50: 186 nM
  TGI: 839 nM
[18]
  GI50: 642 nM
  TGI: 1290 nM
[19]
  GI50: 627 nM
  TGI: 1270 nM
[20]
  GI50: 289 nM
  TGI: 934 nM
[21]
  GI50: 205 nM
  TGI: 936 nM
[22]
  GI50: 231 nM
  TGI: 869 nM
[23]
  GI50: 77.1 nM
  TGI: 446 nM
[24]
  GI50: 605 nM
  TGI: 1380 nM
[26]
  GI50: 562 nM
  TGI: 1190 nM
[27]
  GI50: 274 nM
  TGI: 1390 nM
[29]
  GI50: 786 nM
  TGI: 1460 nM
[56]
  GI50: 145 nM
  TGI: 620 nM
[30]
  GI50: 616 nM
  TGI: 1250 nM
[31]
  GI50: 387 nM
  TGI: 1030 nM
[32]
  GI50: 693 nM
  TGI: 1970 nM
[33]
  GI50: 387 nM
  TGI: 1070 nM
[34]
  GI50: 212 nM
  TGI: 908 nM
[35]
  GI50: 162 nM
  TGI: 1300 nM
[36]
  GI50: 746 nM
  TGI: 2090 nM
[39]
  GI50: 716 nM
  TGI: 1440 nM
[40]
  GI50: 105 nM
  TGI: 718 nM
[41]
  GI50: 106 nM
  TGI: 724 nM
[42]
  GI50: 579 nM
  TGI: 1220 nM
[57]
  GI50: 813 nM
  TGI: 1510 nM
[43]
  GI50: 275 nM
  TGI: 877 nM
[44]
  GI50: 166 nM
  TGI: 805 nM
[45]
  GI50: 679 nM
  TGI: 1430 nM
[46]
  GI50: 485 nM
  TGI: 1190 nM
[47]
  GI50: 479 nM
  TGI: 1270 nM
[49]
  GI50: 869 nM
  TGI: 1630 nM
[50]
  GI50: 628 nM
  TGI: 1350 nM
[51]
  GI50: 252 nM
  TGI: 864 nM
[52]
  GI50: 174 nM
  TGI: 731 nM
[58]
  GI50: 991 nM
  TGI: 1730 nM
[53]
  GI50: 579 nM
  TGI: 1240 nM
